Data taken from patent US10662203B2, “Pyrido[2,3-b]indole compounds for the treatment and prophylaxis of bacterial infection” (Hoffmann-La Roche Inc., priority 2017, dated 2020).
In brackets after ≈: the same amount, converted by molar mass.

How the values were obtained:
A. baumannii (ATCC17978) = assay: 50% growth inhibitory concentration (IC50) determination assay; format: cell-based; details: Iso-Sensitest broth, 0.098 = detection limit
How it was run: (§1)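 Broth microdilution in Iso-Sensitest medium, ~5×10^5 CFU/mL inoculum, compound 50–0.097 μM final (two-fold series), 35±2° C; OD600 read every 20 min over 16 h.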

[1] = test system: K. pneumoniae (ATCC10031); assay: as above; format: cell-based; details: Klebsiella pneumoniae, Iso-Sensitest broth, 0.098 = detection limit
How it was run: as §1

S. aureus (ATCC29213) = assay: as above; format: cell-based; details: Staphylococcus aureus, Iso-Sensitest broth, 0.098 = detection limit
How it was run: as §1

[2] = Lyophilisation solubility assay (LYSA); format: physicochemical; details: 0.05 M phosphate buffer, HPLC-UV; for solubility thermodynamic: phosphate buffer, pH 6.5, aqueous buffer, thermodynamic from solid
Method: Lyophilisation Solubility Assay (LYSA):
The solubility of compounds of present invention was assessed by LYSA assay. Samples were prepared in duplicate from 10 mM DMSO stock solutions (20 μL) diluted in 30 μL pure DMSO. After evaporation of DMSO with a centrifugal vacuum evaporator, the residue was dissolved in 0.05 M phosphate buffer (150 μL, pH 6.5), which was stirred for one hour and shook for two hours. After one night, the solution was filtered using a microtiter filter plate. Then the filtrate and its 1/10 dilution were analyzed by HPLC-UV.

[3] = Acinetobacter baumannii, ATCC17978, A. baumannii ATCC17978

SMILES | IC50 (A. baumannii (ATCC17978); [3]) [µM] | IC50 [1] [µM] | IC50 (S. aureus (ATCC29213)) [µM] | solubility thermodynamic [2] [µg/mL] | IC50 (A. baumannii (ATCC17978); A. baumannii ATCC17978) [µM] | Lysa ([2]; pH 6.5) [µg/mL]
CNc1cc(F)cc2c1[nH]c1ncc(-c3cnc4c(c3)c(=O)c(C(=O)O)cn4C)c(N3CC4[C@H](CCCN4C)C3)c12 (some centres unmarked) [Example 1.110] | 0.074 | < 0.098 | < 0.098 | 71 (≈ 128 µM) |  | 
CNc1cc(F)cc2c1[nH]c1ncc(-c3cnc4c(c3)c(=O)c(C(=O)O)cn4NC)c(N3CC4[C@H](CCCN4C)C3)c12 (some centres unmarked) [Example 1.111] | 0.115 | < 0.098 | < 0.098 | 112 (≈ 196 µM) |  | 
CNc1cc(F)c(F)c2c1[nH]c1ncc(-c3cnc4c(c3)c(=O)c(C(=O)O)cn4NC)c(N3CCC4(F)CN(C)CC34)c12 (centres unmarked) [Example 1.121] | 0.215 | < 0.098 | < 0.098 | 58 (≈ 97.9 µM) |  | 
CCNc1cc(C(F)(F)F)cc2c1[nH]c1ncc(-c3cnc4c(c3)c(=O)c(C(=O)O)cn4NC)c(N3CC[C@H]4CN(C)CC43)c12 (some centres unmarked) [Example 1.123] | 0.696 | < 0.098 | < 0.098 | 48 (≈ 77.3 µM) |  | 
CNc1cc(F)c(F)c2c1[nH]c1ncc(-c3cnc4c(c3)c(=O)c(C(=O)O)cn4NC)c(N3CCC4(CF)CN(C)CC34)c12 (centres unmarked) [Example 1.125] | 0.079 | < 0.098 | < 0.098 | 262 (≈ 432 µM) |  | 
CNc1cc(Cl)cc2c1[nH]c1ncc(-c3cnc4c(c3)c(=O)c(C(=O)O)cn4C)c(N3CCC(N(C)C)C3)c12 (centres unmarked) [Example 1.139] | 0.116 | < 0.098 | < 0.098 | 20 (≈ 36.6 µM) |  | 
CNc1cc(F)cc2c1[nH]c1ncc(-c3cnc4c(c3)c(=O)c(C(=O)O)cn4C)c(N3CCC(CN(C)CCOC)C3)c12 (centres unmarked) [Example 1.141] | 0.485 | < 0.098 | < 0.098 | 485 (≈ 825 µM) |  | 
CNc1cc(F)cc2c1[nH]c1ncc(-c3cnc4c(c3)c(=O)c(C(=O)O)cn4C)c(N3C[C@H](C)[C@@H](N(C)C)C3)c12 [Example 1.152] | 0.305 | < 0.098 | < 0.098 | 49 (≈ 90.1 µM) |  | 
CNc1cc(F)cc2c1[nH]c1ncc(-c3cnc4c(c3)c(=O)c(C(=O)O)cn4NCC(F)(F)F)c(N3CCC[C@H]3CN(C)C)c12 [Example 1.153] | 0.388 | < 0.098 | 0.372 | 201 (≈ 321 µM) |  | 
CNc1cc(F)c(F)c2c1[nH]c1ncc(-c3cnc4c(c3)c(=O)c(C(=O)O)cn4C)c(N3C[C@H](C)[C@@H](N(C)C)C3)c12 [Example 1.160] | 0.131 | < 0.098 | < 0.098 | 43 (≈ 76.6 µM) |  | 
CNc1cc(F)c(F)c2c1[nH]c1ncc(-c3cnc4c(c3)c(=O)c(C(=O)O)cn4C)c(N3C[C@H](OC)[C@@H](N(C)C)C3)c12 [Example 1.170] |  | < 0.098 | < 0.098 |  | 0.292 | 119
CNc1cc(F)cc2c1[nH]c1ncc(-c3cnc4c(c3)c(=O)c(C(=O)O)cn4C)c(N3C[C@H](OC)[C@@H](N(C)C)C3)c12 [Example 1.171] | 0.445 | < 0.098 | < 0.098 | 46 (≈ 82.2 µM) |  | 
CNc1cc(F)c(F)c2c1[nH]c1ncc(-c3cnc4c(c3)c(=O)c(C(=O)O)cn4C)c(N3C[C@H]4CCC[C@@H](N(C)C)[C@H]4C3)c12 [Example 1.175] | 0.277 | < 0.098 | < 0.098 | 113 (≈ 188 µM) |  | 
CNc1cc(F)c(F)c2c1[nH]c1ncc(-c3cnc4c(c3)c(=O)c(C(=O)O)cn4C)c(N3CCC(CN(C)C)CC3)c12 [Example 1.183] | 0.103 | < 0.098 | < 0.098 | 96 (≈ 167 µM) |  | 
CNc1cc(F)cc2c1[nH]c1ncc(-c3cnc4c(c3)c(=O)c(C(=O)O)cn4C)c(N3CC[C@H]4CN(C)CC43)c12 (some centres unmarked) [Example 1.187] | 0.096 | < 0.098 | < 0.098 | > 730 |  | 
CNc1cc(F)c(F)c2c1[nH]c1ncc(-c3cnc4c(c3)c(=O)c(C(=O)O)cn4C)c(N3CCC(N(C)CCO)C3)c12 (centres unmarked) [Example 1.200] | 0.57 | < 0.098 | 0.1 | 69 (≈ 119 µM) |  | 
CNc1cc(F)c(F)c2c1[nH]c1ncc(-c3cnc4c(c3)c(=O)c(C(=O)O)cn4C)c(N3CC[C@H]4CN(CCO)CC43)c12 (some centres unmarked) [Example 1.205] | 0.143 | < 0.098 | < 0.098 | 192 (≈ 326 µM) |  | 
CNc1cc(F)c(F)c2c1[nH]c1ncc(-c3cnc4c(c3)c(=O)c(C(=O)O)cn4C(C)CO)c(N3CC[C@H]4CN(C)CC43)c12 (some centres unmarked) [Example 1.206] | 0.277 | < 0.098 | < 0.098 | 273 (≈ 452 µM) |  | 
CNc1cc(F)cc2c1[nH]c1ncc(-c3cnc4c(c3)c(=O)c(C(=O)O)cn4C)c(N3CC4[C@H](CCN4C)C3)c12 (some centres unmarked) [Example 1.209] | 0.076 | < 0.098 | < 0.098 | 63 (≈ 116 µM) |  | 
CNc1cc(F)cc2c1[nH]c1ncc(-c3cnc4c(c3)c(=O)c(C(=O)O)cn4C)c(N3CC[C@H]4CCN(C)C4C3)c12 (some centres unmarked) [Example 1.211] | 0.11 | < 0.098 | < 0.098 | 205 (≈ 369 µM) |  | 
CNc1cc(F)c(F)c2c1[nH]c1ncc(-c3cnc4c(c3)c(=O)c(C(=O)O)cn4C)c(N3CCCC(N(C)C)C3)c12 (centres unmarked) [Example 1.215] | 0.252 | 0.103 | 0.114 | 48 (≈ 85.5 µM) |  | 
CNc1cc(F)c(F)c2c1[nH]c1ncc(-c3cnc4c(c3)c(=O)c(C(=O)O)cn4C)c(N3CC4[C@H](CC[C@H]4N(C)C)C3)c12 (some centres unmarked) [Example 1.221] | 0.081 | < 0.098 | < 0.098 | 49 (≈ 83.4 µM) |  | 
CNc1cc(F)c(F)c2c1[nH]c1ncc(-c3cnc4c(c3)c(=O)c(C(=O)O)cn4C)c(N3C[C@@H](O)[C@@H](N(C)C)C3)c12 [Example 1.223] | 0.298 | < 0.098 | < 0.098 | 472 (≈ 838 µM) |  | 

Now from value to compound:

IC50 (A. baumannii (ATCC17978); [3]) [µM] | IC50 [1] [µM] | IC50 (S. aureus (ATCC29213)) [µM] | solubility thermodynamic [2] [µg/mL] | IC50 (A. baumannii (ATCC17978); A. baumannii ATCC17978) [µM] | Lysa ([2]; pH 6.5) [µg/mL] | SMILES
0.9 | < 0.098 | 0.272 | 632 (≈ 1090 µM) |  |  | CNc1cc(F)c(F)c2c1[nH]c1ncc(-c3cnc4c(c3)c(=O)c(C(=O)O)cn4C)c(N3CCC(O)(CN(C)C)C3)c12 (centres unmarked) [Example 1.100]
0.15 | < 0.098 | < 0.098 | 214 (≈ 372 µM) |  |  | CNc1cc(F)c(F)c2c1[nH]c1ncc(-c3cnc4c(c3)c(=O)c(C(=O)O)cn4C)c(N3CCC(C)(CN(C)C)C3)c12 (centres unmarked) [Example 1.101]
0.169 | < 0.098 | < 0.098 | 37 (≈ 64.1 µM) |  |  | CNc1cc(F)c(F)c2c1[nH]c1ncc(-c3cnc4c(c3)c(=O)c(C(=O)O)cn4C)c(N3CCC4(F)CN(C)CC34)c12 (centres unmarked) [Example 1.120]
0.074 | < 0.098 | < 0.098 | 151 (≈ 255 µM) |  |  | CNc1cc(F)c(F)c2c1[nH]c1ncc(-c3cnc4c(c3)c(=O)c(C(=O)O)cn4C)c(N3CCC4(CF)CN(C)CC34)c12 (centres unmarked) [Example 1.124]
0.299 | < 0.098 | < 0.098 | 42 (≈ 71.5 µM) |  |  | CNc1cc(F)c(F)c2c1[nH]c1ncc(-c3cnc4c(c3)c(=O)c(C(=O)O)cn4C)c(N3CC4(CC4)C[C@H]3CN(C)C)c12 [Example 1.157]
0.143 | < 0.098 | 12.2 | 62 (≈ 106 µM) |  |  | CNc1cc(F)c(F)c2c1[nH]c1ncc(-c3cnc4c(c3)c(=O)c(C(=O)O)cn4C)c(N3CCC4(CCCN(C)C4)C3)c12 (centres unmarked) [Example 1.190]
0.499 | < 0.098 | < 0.098 | 29 (≈ 45.9 µM) |  |  | CNc1cc(F)c(F)c2c1[nH]c1ncc(-c3cnc4c(c3)c(=O)c(C(=O)O)cn4C)c(N3CCC4(CCCN(CCOC)C4)C3)c12 (centres unmarked) [Example 1.195]
0.245 | < 0.098 | < 0.098 | 407 (≈ 672 µM) |  |  | CNc1cc(F)c(F)c2c1[nH]c1ncc(-c3cnc4c(c3)c(=O)c(C(=O)O)cn4C)c(N3CCCC(N(C)CCOC)C3)c12 (centres unmarked) [Example 1.197]
0.215 | < 0.098 | < 0.098 | 56 (≈ 94.7 µM) |  |  | CNc1cc(F)c(F)c2c1[nH]c1ncc(-c3cnc4c(c3)c(=O)c(C(=O)O)cn4C)c(N3CCC(N(C)CCOC)C3)c12 (centres unmarked) [Example 1.198]
0.852 | < 0.098 | 0.189 | 124 (≈ 210 µM) |  |  | CNc1cc(F)c(F)c2c1[nH]c1ncc(-c3cnc4c(c3)c(=O)c(C(=O)O)cn4C)c(N3CCCC(N(C)CCO)C3)c12 (centres unmarked) [Example 1.201]
0.778 | < 0.098 | 0.208 | 303 (≈ 516 µM) |  |  | CNc1cc(F)c(F)c2c1[nH]c1ncc(-c3cnc4c(c3)c(=O)c(C(=O)O)cn4C)c(N3CCC(N4CCCC4)CC3)c12 [Example 1.203]
0.102 | < 0.098 | < 0.098 | 26 (≈ 46.5 µM) |  |  | CNc1cc(F)c(F)c2c1[nH]c1ncc(-c3cnc4c(c3)c(=O)c(C(=O)O)cn4C)c(N3CC[C@H]4CN(C)C4C3)c12 (some centres unmarked) [Example 1.213]
